Results reported in patent publication US7105531B2, “Tricyclic protein kinase inhibitors” (WYETH, priority 1999, dated 2006).
“And” between values parts separate entries of the source, which are not always exact repeats. Identical values can stand only once.

What was measured:
[1] = molecular target: T1, Rat2 fibroblasts transformed with v-Src/Hu c-Src fusion gene (Homo sapiens, UniProt P12931, cells depend on it, form not given); assay: Anchorage independent Src-transformed fibroblast proliferation test procedure; assay type: cell-based, rat; settings: for GI50: rat2 fibroblasts transformed with v-src/hu c-src fusion gene, read-out: Src TF prolif IC50
T1 construct: fused on or other part: The v-Src frame of Rous sarcoma virus: everything outside the catalytic domain, namely the N-terminal unique/SH3/SH2 part; Candidates are Prague C (P00526), then Schmidt-Ruppin A (P00524)
T1 sequence (P12931 whole entry, change not shown, the tested form may be a part): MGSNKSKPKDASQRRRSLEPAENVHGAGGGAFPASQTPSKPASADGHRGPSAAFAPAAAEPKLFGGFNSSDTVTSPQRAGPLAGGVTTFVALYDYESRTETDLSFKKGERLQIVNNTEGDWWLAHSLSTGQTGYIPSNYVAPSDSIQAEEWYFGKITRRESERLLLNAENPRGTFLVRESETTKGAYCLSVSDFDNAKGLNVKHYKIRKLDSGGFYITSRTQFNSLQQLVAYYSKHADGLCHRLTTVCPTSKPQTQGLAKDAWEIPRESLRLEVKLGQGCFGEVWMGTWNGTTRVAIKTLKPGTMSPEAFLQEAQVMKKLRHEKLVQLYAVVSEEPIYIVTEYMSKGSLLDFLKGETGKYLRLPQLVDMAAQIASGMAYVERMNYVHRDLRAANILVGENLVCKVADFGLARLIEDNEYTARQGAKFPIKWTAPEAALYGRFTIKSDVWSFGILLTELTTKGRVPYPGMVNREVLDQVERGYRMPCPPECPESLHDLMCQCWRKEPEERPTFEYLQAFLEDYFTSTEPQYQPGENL
From the text: Anchorage Independent Src-transformed Fibroblast Proliferation Test Procedure: Rat2 fibroblasts stably transformed with a plasmid containing CMV promotor controlled v-Src/Hu c-Src fusion gene in which the catalytic domain of human c-Src is inserted in place of the v-Src catalytic domain in the v-Src gene are used for the measurement of src dependent suspension growth.

[2] = molecular target: T2, recombinant human MEK 1 (MAPKK) and recombinant human ERK2 (MAPK) (Homo sapiens, UniProt P28482+Q02750); assay: Mitogen Activated Protein Kinase (MAPK) coupled Mek-Erk test procedure; assay type: biochemical
T2 construct: GST
Experimental: To evaluate inhibitors of the MAP (mitogen activated protein) kinase a two component coupled standard pharmacological test procedure, which measures phosphorylation of a serine/threonine residue in an appropriate sequence in the substrate in the presence and absence of a putative inhibitor, is used. Recombinant human MEK 1 (MAPKK) is first used to activate recombinant human ERK2 (MAPK) and the activated MAPK (ERK) is incubated with substrate (myelin basic protein peptide (MBPP) or Myc peptide) in the presence of ATP, Mg^+2 and radiolabeled ^33P ATP. The phosphorylated peptide is captured on a P 81 phosphocellulose filter (paper filter or embedded in microtiter plate) washed and counted by scintillation methods.
The peptide substrates used in the assay are MBPP, peptide substrate ([…]), or synthetic Myc substrate, ([…].5 TFA). The recombinant enzymes used are prepared as GST fusion proteins of human ERK 2 and human MEK 1. Inhibitor samples are prepared as 10× stocks in 10% DMSO and an appropriate aliquot is used to deliver either 10 ug/ml for a single point screening dose or 100 to 0.0001 uM final concentration for a dose response curve. Final DMSO concentrations are less than or equal to 1%.
The reaction is run as follows in 50 mM Tris kinase buffer, pH 7.4 in a reaction volume of 50 ul. The appropriate volume of kinase buffer and inhibitor sample is added to the tube. Appropriate dilution of enzyme is delivered to give 2–5 ug recombinant MAPK (Erk) per tube. The inhibitor is incubated with MAPK (Erk) for 30 min at 0 deg. C. Recombinant Mek (MAPKK) (0.5–2.5 ug) or fully activated Mek (0.05–0.1 units) is added to activate the Erk and incubated for 30 min at 30° C. Then substrate and γ^33P ATP are added to give a final concentration of 0.5–1 mM MBPP or 250–500 uM Myc; 0.2–0.5 uCi gamma P 33 ATP/tube; 50 μM ATP final concentration. Samples are incubated at 30° C. for 30 minutes and the reaction is stopped by adding 25 μl of ice cold 10% trichloroacetic acid (TCA). After samples are chilled on ice for 30 min. 20 μl of sample is transferred onto P 81 phosphocellulose filter. Filter papers are washed 2 times with a large volume of 1% acetic acid, then 2 times with water. The filters are briefly air dried before addition of scintillant and samples are counted in the appropriate scintillation counter set up for reading ^33P isotope. Samples include a positive control (activated enzyme plus substrate); a no enzyme control; a no substrate control; samples with different concentrations of putative inhibitor, and samples with reference inhibitors (other active compounds or non-specific inhibitors such as staurosporine or K252 B).
The raw data is captured as cpm. Sample replicates are averaged and corrected for background count. Mean cpm data is tabulated by group and % inhibition by a test compound is calculated as (corrected cpm control−corrected. cpm sample/control)×100=% inhibition).

SMILES	GI50 [1] [nM]	melting point	Src TF prolif % Inh ([1]; @ dose 0.22 μM) [%]	Mek-Erk IC50 [2] [µM]	Src TF prolif % Inh ([1]; @ dose 10 μM) [%]
CCOc1cc2cc3ncc(C#N)c(Nc4cc(OC)c(Cl)cc4C)c3cc2cc1OCCN1CCOCC1 [Example 190, 4-(4-Chloro-5-methoxy-2-methylanilino)-8-ethoxy-7-[2-(4-morpholinyl)ethoxy]benzo[g]quinoline-3-carbonitrile]	170	195 to 196 °C	–	–	–
N#Cc1cnc2cc3ccccc3cc2c1Nc1ccc(Oc2ccccc2)cc1 [Example 3, 4-(4-Phenoxyanilino)benzo[g]quinoline-3-carbonitrile]	–	250 to 251 °C	–	0.2	–
N#Cc1cnc2c(c1Nc1ccc(Cl)cc1Br)C=C1N=CN=C1C2 [Example 38, 8-(2-Bromo-4-chlorophenylamino)imidazo[4,5-g]quinoline-7-carbonitrile]	–	244 to 246 °C	–	1.3	0
COc1cc(Nc2c(C#N)cnc3nc4cc(OC)c(OC)cc4cc23)c(Cl)cc1Cl [Example 165, 4-(2,4-Dichloro-5-methoxyanilino)-7,8-dimethoxybenzo[b][1,8]naphthyridine-3-carbonitrile]	> 10000	297 °C (dec.)	–	–	–
COc1cc2cc3ncc(C#N)c(Nc4ccc(F)c(Cl)c4)c3cc2cc1OCCN1CCOCC1 [Example 212, 4-(3-Chloro-4-fluoroanilino)-8-methoxy-7-[2-(4-morpholinyl)ethoxy]benzo[g]quinoline-3-carbonitrile]	> 10000	205 to 210 °C	–	–	–
COc1cc(Nc2c(C#N)cnc3cc4c(cc23)ncn4CCN2CCOCC2)c(C)cc1Cl [Example 57, 8-(4-Chloro-5-methoxy-2-methylanilino)-3-[2-(4-morpholinyl)ethyl]-3H-imidazo[4,5-g]quinoline-7-carbonitrile]	–	246 to 248 °C	–	–	0
COc1cc(Nc2c(C#N)cnc3c2C=C2N=CN=C2C3)cc(OC)c1OC [Example 42, 8-(3,4,5-Trimethoxyanilino)imidazo[4,5-g]quinoline-7-carbonitrile]	–	> 260 °C	50	–	–
N#Cc1cnc2c(sc3ccccc32)c1Nc1ccc(Oc2ccccc2)cc1 [Example 69, 4-(4-Phenoxyphenylamino)benzo[4,5]thieno[3,2-b]pyridine-3-carbonitrile]	–	230 to 233 °C	–	3	–
CCOc1cc2cc3c(Nc4cc(OC)c(Cl)cc4C)c(C#N)cnc3cc2cc1OCCN(CC(N)=O)CC(N)=O [Example 194, 2-(Carbamoylmethyl-{2-[4-(4-chloro-5-methoxy-2-methylphenylamino)-3-cyano-7-ethoxybenzo[g]quinolin-8-yloxy]-ethyl}-amino)-acetamide]	> 10000	168 to 170 °C	–	–	–
N#Cc1cnc2c(c1Nc1ccc(Oc3ccccc3)cc1)C=C1N=CN=C1C2 [Example 44, 8-(4-Phenoxyanilino)imidazo[4,5-g]quinoline-7-carbonitrile]	–	> 270 °C	–	0.03	–
CCOc1cc2cc3c(Nc4cc(OC)c(Cl)cc4C)c(C#N)cnc3cc2cc1OCCN1CCOCC1 [Example 191, 4-(4-Chloro-5-methoxy-2-methylanilino)-7-ethoxy-8-[2-(4-morpholinyl)ethoxy]benzo[g]quinoline-3-carbonitrile]	22	201 to 203 °C	–	–	–
COc1cc(Nc2c(C#N)cnc3c2C=C2N=C(NCCN4CCOCC4)N=C2C3)cc(OC)c1OC [Example 33, 2-{[2-(4-Morpholinyl)ethyl]amino}-8-(3,4,5-trimethoxyanilino)imidazo[4,5-g]quinoline-7-carbonitrile]	–	175 to 178 °C	–	–	–
COc1cc2cc3ncc(C#N)c(Nc4cc(OC)c(OC)c(OC)c4)c3cc2cc1OCCN1CCOCC1	–	135 to 138 °C (dec.)	–	–	–

Now from value to compound, other results behind:

GI50 [1] [nM]	melting point	Src TF prolif % Inh ([1]; @ dose 0.22 μM) [%]	SMILES	Mek-Erk IC50 [2] [µM]	Src TF prolif % Inh ([1]; @ dose 10 μM) [%]
175	170 to 173 °C	–	COc1cc(Nc2c(C#N)cnc3cc4cc(OC)c(OCCN5CCN(C)CC5)cc4cc23)c(Cl)cc1F [Example 201, 4-(2-Chloro-4-fluoro-5-methoxyanilino)-8-methoxy-7-[2-(4-methyl-1-piperazinyl)ethoxy]benzo[g]quinoline-3-carbonitrile]	–	–
128	197 to 205 °C	–	COc1cc(Nc2c(C#N)cnc3cc4cc(OCCN5CCN(C)CC5)c(OC)cc4cc23)c(Cl)cc1F [Example 211, 4-(2-Chloro-4-fluoro-5-methoxyanilino)-7-methoxy-8-[2-(4-methyl-1-piperazinyl)ethoxy]benzo[g]quinoline-3-carbonitrile]	–	–
929	205 to 235 °C	–	COc1cc(Nc2c(C#N)cnc3cc4cc(OC)c(OCCN5CCC(O)CC5)cc4cc23)c(Cl)cc1C [Example 207, 4-(2-Chloro-5-methoxy-4-methylanilino)-8-methoxy-7-[2-(4-hydroxy-1-piperidinyl)ethoxy]benzo[g]quinoline-3-carbonitrile]	–	–
67	–	–	COc1cc(Nc2c(C#N)cnc3cc4cc(OCCn5nccn5)c(OC)cc4cc23)c(Cl)cc1Cl [Example 158, 4-(2,4-Dichloro-5-methoxyphenylamino)-7-methoxy-8-(2-[1,2,3]triazol-2-yl-ethoxy)benzo[g]quinoline-3-carbonitrile]	–	–
73	245 °C (dec.)	–	COc1cc(Nc2c(C#N)cnc3cc4cc(OCCn5ccnn5)c(OC)cc4cc23)c(Cl)cc1Cl [Example 159, 4-(2,4-Dichloro-5-methoxyphenylamino)-7-methoxy-8-(2-[1,2,3]triazol-1-yl-ethoxy)benzo[g]quinoline-3-carbonitrile]	–	–
1870	227 to 230 °C (dec.)	–	COc1cc(Nc2c(C#N)cnc3nc4cc(OCCCl)c(OC)cc4cc23)c(Cl)cc1Cl [Example 172, 8-(2-Chloroethoxy)-4-(2,4-dichloro-5-methoxyanilino)-7-methoxybenzo[b][1,8]naphthyridine-3-carbonitrile]	–	–
38	205 to 208 °C	–	COc1cc(Nc2c(C#N)cnc3cc4cc(OCCCN5CCOCC5)c(OC)cc4cc23)c(Cl)cc1Cl [Example 157, 4-(2,4-Dichloro-5-methoxyphenylamino)-7-methoxy-8-(3-morpholin-4-yl-propoxy)benzo[g]quinoline-3-carbonitrile]	–	–
68	218 to 235 °C and 220 to 227 °C	–	COc1cc(Nc2c(C#N)cnc3cc4cc(OC)c(OCCN5CCN(C)CC5)cc4cc23)c(Cl)cc1C [Example 202, 4-(2-Chloro-5-methoxy-4-methylanilino)-8-methoxy-7-[2-(4-methyl 1-piperazinyl)ethoxy]benzo[g]quinoline-3-carbonitrile]	–	–
15	–	–	COc1cc(Nc2c(C#N)cnc3cc4cc(OCCN5CCOCC5)c(OC)cc4cc23)c(Cl)cc1Cl [Example 129, 4-(2,4-dichloro-5-methoxyanilino)-7-methoxy-8-[2-(4-morpholinyl)ethoxy]benzo[g]quinoline-3-carbonitrile]	–	–
3740	242 to 244 °C (dec.)	–	COc1cc(Nc2c(C#N)cnc3nc4cc(OCCN5CCOCC5)c(OC)cc4cc23)c(Cl)cc1Cl [Example 173, 4-(2,4-Dichloro-5-methoxyanilino)-7-methoxy-8-[2-(4-morpholinyl)ethoxy]benzo[b][1,8]naphthyridine-3-carbonitrile]	–	–
309	204 to 214 °C	–	COc1cc(Nc2c(C#N)cnc3cc4cc(OC)c(OCCN5CCOCC5)cc4cc23)c(Cl)cc1F [Example 209, 4-(2-Chloro-4-fluoro-5-methoxyanilino)-8-methoxy-7-[2-(4-morpholinyl)ethoxy]benzo[g]quinoline-3-carbonitrile]	–	–
